Assay results: ChEMBL document CHEMBL1201862, “PubChem BioAssay data set” (2004)
Calls of active or inactive are those of the source.

Experiments:
[1] = target: Large T antigen (Simian virus 40, UniProt P03070); type: functional, Betapolyomavirus macacae;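 also: Confirmatory-stage PubChem screen for compounds that inhibit SV40 T antigen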
[2] = target: DNA dC->dU-editing enzyme APOBEC-3A (Homo sapiens, UniProt P31941); test: A3A deaminase inhibition for selectivity – biochemical, dose response (AID 504722); type: functional
Sequence of DNA dC->dU-editing enzyme APOBEC-3A (P31941 whole entry): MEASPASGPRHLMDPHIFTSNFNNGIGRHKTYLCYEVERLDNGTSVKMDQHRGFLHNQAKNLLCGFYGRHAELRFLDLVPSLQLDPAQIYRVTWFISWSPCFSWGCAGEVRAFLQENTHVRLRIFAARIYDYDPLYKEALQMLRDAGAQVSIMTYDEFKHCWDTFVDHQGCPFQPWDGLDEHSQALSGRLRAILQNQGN

[3] = target: Glucose-6-phosphate 1-dehydrogenase (Homo sapiens, UniProt P11413); test: inhibition of Homo sapiens G6PD, dose series – biochemical, fluorescence, selectivity assay for P. falciparum G6PD inhibitor project, dose response (AID 504792); type: functional
Sequence of Glucose-6-phosphate 1-dehydrogenase (P11413 whole entry): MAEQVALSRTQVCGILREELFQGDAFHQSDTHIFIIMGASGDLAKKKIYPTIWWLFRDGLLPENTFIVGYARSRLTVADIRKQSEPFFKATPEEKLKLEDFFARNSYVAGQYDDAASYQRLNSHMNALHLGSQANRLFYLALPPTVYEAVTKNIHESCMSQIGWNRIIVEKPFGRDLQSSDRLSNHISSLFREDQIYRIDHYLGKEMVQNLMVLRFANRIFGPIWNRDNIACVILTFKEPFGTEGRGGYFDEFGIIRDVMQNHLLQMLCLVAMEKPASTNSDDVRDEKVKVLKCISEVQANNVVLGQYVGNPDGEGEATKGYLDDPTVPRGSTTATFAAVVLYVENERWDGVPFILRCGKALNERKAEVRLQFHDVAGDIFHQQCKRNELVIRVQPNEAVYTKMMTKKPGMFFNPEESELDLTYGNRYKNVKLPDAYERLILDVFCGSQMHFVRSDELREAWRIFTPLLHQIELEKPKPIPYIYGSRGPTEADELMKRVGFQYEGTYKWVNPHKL

[4] = target: DNA dC->dU-editing enzyme APOBEC-3G (Homo sapiens, UniProt Q9HC16); test: Dose Response confirmation of small molecule APOBEC3G DNA Deaminase Inhibitors via a fluorescence-based single-stranded DNA deaminase assay. [Related pubchem assays (depositor defined):AID493012, AID493028]; type: functional
Sequence of DNA dC->dU-editing enzyme APOBEC-3G (Q9HC16 whole entry): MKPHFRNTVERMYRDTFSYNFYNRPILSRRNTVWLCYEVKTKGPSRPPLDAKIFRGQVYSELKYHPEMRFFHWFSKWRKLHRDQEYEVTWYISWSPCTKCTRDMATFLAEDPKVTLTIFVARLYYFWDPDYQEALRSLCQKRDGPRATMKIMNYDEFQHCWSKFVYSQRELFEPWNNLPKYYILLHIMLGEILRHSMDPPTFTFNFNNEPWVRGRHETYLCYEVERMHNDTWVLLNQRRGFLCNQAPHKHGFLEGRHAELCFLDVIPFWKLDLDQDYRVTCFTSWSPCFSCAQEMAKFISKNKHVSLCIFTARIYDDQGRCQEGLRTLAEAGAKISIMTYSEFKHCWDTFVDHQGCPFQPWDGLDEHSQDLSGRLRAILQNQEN

[5] = target: Mitochondrial peptide methionine sulfoxide reductase (Bos taurus, UniProt P54149); test: Absorbance-based biochemical high throughput dose response assay for activators of Methionine sulfoxide reductase A (MsrA).; type: functional
Sequence of Mitochondrial peptide methionine sulfoxide reductase (P54149 whole entry): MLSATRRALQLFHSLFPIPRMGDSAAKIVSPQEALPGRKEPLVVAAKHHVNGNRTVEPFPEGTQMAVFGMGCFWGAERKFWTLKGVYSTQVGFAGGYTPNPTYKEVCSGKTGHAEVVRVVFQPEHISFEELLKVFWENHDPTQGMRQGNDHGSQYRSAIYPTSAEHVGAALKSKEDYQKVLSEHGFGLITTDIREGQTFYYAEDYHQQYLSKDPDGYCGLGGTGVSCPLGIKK

[6] = reduction of Shn3 3'UTR-driven luciferase in osteoblasts – cell-based, Clone20 osteoblasts, firefly luciferase, cherry-picked, dose response (AID 624132); type: functional;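 also: firefly luciferase luminescence from reporter carrying the Shn3 3'UTR in osteoblasts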
[7] = loss of viability in HepG2 cells – cell-based, CellTiter-Glo, cherry-picked, cytotoxicity control for Shn3 inhibitor project, dose response (AID 624134); type: functional
[8] = target: Protein Wnt-3a (Mus musculus, UniProt P27467); test: antagonism of Wnt3a pathway luciferase reporter – Wnt-LIGHT cells, luminescence, selectivity assay for Gli-SUFU antagonist project, dose response (AID 651570); type: functional; details: read-out: IC50_Mean;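 also: Wnt-LIGHT reporter cells stimulated with conditioned medium from Wnt3a-producing cells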
Sequence of Protein Wnt-3a (P27467 whole entry): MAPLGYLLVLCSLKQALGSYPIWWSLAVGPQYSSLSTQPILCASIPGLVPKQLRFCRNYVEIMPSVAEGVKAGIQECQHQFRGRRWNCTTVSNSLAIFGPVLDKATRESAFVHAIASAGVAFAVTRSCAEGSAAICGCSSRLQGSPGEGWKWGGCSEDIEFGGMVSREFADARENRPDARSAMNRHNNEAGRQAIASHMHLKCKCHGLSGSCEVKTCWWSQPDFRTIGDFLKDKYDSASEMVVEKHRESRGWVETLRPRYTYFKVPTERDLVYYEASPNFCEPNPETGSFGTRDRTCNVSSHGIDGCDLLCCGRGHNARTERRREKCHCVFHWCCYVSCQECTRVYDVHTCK

[9] = system: BJ; test: BJ-TERT fibroblast viability loss – cell-based, RAS-independent, luminescence, dose response (AID 1933); type: functional; details: Homo sapiens
[10] = system: BJ; test: cells; type: functional, cell-based; details: Homo sapiens
[11] = system: BJ; test: BJ-TERT-LT-ST fibroblast viability loss – cell-based, RAS-independent, luminescence, dose response (AID 1935); type: functional; details: Homo sapiens;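 also: BJ fibroblasts immortalized with TERT plus LT and ST oncogenes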
[12] = DRD fibroblast viability loss – cell-based, non-viral oncogenic, luminescence, dose response (AID 1934); type: functional; details: Homo sapiens
[13] = system: BJ; test: growth inhibition of engineered Ras-driven BJ cells – cell-based, alamar blue fluorescence, cherrypicked samples, dose response (AID 2631); type: functional; details: Homo sapiens;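 also: confirmatory dose-response assay in RAS-dependent BJ fibroblasts engineered with TERT, LT and ST, with cytotoxicity read by fluorescence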
[14] = system: Vero; test: cells; type: functional, cell-based; details: Chlorocebus sabaeus
[15] = system: Vero; test: cells; type: functional; details: Chlorocebus sabaeus
[16] = luciferase reporter signal suppression in cells – H4 neuroglioma cells, luminescence, dose response (AID 1990); type: functional, cell-based
[17] = Luminescence Cell-Based Dose Response HTS to Identify Inhibitors of 5'UTR Stem-Loop Driven Prion Protein mRNA Translation in H4 Neuroglioblastoma Cells. [Related pubchem assays: 1827 (Project Summary), 1813 (Primary HTS)]; type: functional
[18] = alpha-synuclein stem-loop luciferase translation blockers – H4 neuroglioma cells, luminescence, confirmation (AID 1988); type: functional, cell-based
[19] = HEK-293T cell viability reduction – luminescence, B-cell screen hits, cytotoxicity control for BCR NF-kB inhibitor project, dose response (AID 489021); type: functional, cell-based;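 also: HEK-293T cells carrying an NF-kB luciferase reporter; cells exposed to compound for about 14 hours before viability readout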
[20] = system: INS1; test: INS-1E survival protection against cytokine death – cell-based, luminescence, retest, dose response (AID 449756); type: functional; details: Rattus norvegicus;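 also: cell death triggered by IL-1 beta plus TNF-alpha plus IFN-gamma mixture; protective hits raise ATP signal compared with cytokine alone wells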
[21] = decrease of insulin promoter-GFP reporter – imaging, high-content screening, mouse beta cells (AID 1628); type: functional; details: MIN6
[22] = MIN6 cell viability loss – mouse insulinoma, cytotoxicity control, dose response (AID 2122); type: functional;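 also: confirmatory high-throughput counterscreen run to flag cytotoxic compounds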
[23] = viability of PTEN-deleted HCT116 cells – cell-based, HCT116 PTEN knockout, dose response (AID 1047); type: functional;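 also: HCT116 colon tumor cells with PTEN knocked out; cells exposed to compound for 60 hours before readout; potency for loss of cell viability measured by luminescence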
[24] = viability of HCT116 lacking mutant beta-catenin – cell-based, human colon tumor, dose response (AID 1045); type: functional;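 also: HCT116 colon tumor cells with beta catenin knocked out; cells exposed to compound for 60 hours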
[25] = target: T1, Heat shock factor protein 1 (Mus musculus, UniProt P38532); test: enhancement of HSF1-driven luciferase signal – cell-based, NIH3T3, luminescence, dose retest, confirmation (AID 435004); type: functional;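 also: stress induced by proteasome inhibitor MG132 added 30 min after compound; luciferase reporter driven by HSF1 response element in NIH3T3 cells; actives raise luminescence as potentiators of the MG132 stress response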
T1 sequence (P38532 whole entry): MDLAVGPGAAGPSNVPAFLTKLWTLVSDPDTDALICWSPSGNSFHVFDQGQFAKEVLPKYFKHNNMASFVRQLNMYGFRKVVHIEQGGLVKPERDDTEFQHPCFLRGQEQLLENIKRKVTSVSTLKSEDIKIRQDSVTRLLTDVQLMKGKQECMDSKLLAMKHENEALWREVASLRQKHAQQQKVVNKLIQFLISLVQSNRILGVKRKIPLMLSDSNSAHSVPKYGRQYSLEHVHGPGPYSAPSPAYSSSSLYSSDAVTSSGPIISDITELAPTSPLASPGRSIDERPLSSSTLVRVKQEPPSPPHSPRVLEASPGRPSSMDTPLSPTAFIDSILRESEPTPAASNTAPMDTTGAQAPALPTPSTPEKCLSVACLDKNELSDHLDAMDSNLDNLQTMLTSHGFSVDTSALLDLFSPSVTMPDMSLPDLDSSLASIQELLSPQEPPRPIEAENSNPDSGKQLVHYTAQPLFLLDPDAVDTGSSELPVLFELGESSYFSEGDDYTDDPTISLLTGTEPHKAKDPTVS

[26] = target: T2, High affinity choline transporter 1 (Homo sapiens, UniProt Q9GZV3); test: human choline transporter blockers, potency – cell-based, 5-point CRC, membrane potential dye, dose response (AID 504840); type: functional
T2 sequence (Q9GZV3 whole entry): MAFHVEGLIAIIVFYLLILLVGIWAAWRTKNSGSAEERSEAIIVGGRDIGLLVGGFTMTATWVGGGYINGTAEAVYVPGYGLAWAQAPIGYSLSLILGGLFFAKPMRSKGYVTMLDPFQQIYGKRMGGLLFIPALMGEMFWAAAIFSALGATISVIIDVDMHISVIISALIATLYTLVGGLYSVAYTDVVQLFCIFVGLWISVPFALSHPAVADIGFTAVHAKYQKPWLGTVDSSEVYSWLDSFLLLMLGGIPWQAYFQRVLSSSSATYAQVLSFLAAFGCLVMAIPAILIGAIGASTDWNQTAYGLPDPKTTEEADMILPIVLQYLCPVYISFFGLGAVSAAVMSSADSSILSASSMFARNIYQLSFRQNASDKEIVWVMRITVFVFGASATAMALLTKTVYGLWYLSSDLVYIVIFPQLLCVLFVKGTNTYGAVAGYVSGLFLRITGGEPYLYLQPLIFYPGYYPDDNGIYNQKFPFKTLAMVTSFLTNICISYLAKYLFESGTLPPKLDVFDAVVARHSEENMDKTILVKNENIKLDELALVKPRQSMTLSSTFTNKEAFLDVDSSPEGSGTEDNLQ

[27] = target: T2, High affinity choline transporter 1; test: human choline transporter blockers, potency – cell-based, 10-point CRC, membrane potential dye, dose response (AID 588401); type: functional;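 also: membrane potential dye fluorescence of choline-evoked depolarization via CHT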

Sequence of Large T antigen (P03070 whole entry): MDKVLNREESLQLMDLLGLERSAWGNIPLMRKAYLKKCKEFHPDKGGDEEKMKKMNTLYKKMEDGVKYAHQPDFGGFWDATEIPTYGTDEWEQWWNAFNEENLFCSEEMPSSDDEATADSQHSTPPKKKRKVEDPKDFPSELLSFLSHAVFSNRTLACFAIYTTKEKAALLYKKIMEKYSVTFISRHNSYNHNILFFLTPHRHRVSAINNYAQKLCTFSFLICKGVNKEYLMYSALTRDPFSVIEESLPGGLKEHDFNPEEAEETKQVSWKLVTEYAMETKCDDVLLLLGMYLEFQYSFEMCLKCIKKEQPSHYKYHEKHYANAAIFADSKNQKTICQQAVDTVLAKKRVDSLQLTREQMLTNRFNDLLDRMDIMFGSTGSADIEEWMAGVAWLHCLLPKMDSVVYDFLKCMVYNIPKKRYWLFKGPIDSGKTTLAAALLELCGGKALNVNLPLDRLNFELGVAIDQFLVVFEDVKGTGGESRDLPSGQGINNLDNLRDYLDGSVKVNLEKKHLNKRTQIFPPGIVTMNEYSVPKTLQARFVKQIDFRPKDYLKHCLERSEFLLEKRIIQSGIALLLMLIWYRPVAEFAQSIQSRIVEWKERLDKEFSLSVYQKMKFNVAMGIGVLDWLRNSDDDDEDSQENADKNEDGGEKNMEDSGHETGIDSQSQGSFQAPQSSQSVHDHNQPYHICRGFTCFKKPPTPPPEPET

**Q.** Which results are given for `c1ccc(SSc2ccccn2)nc1`?
**A.** IC50 [1]: > 100 µM (active); IC50 [2]: > 100 µM (inactive); IC50 [3]: > 80 µM (inactive); IC50 [4]: 3.88 µM (active); EC50 [5]: > 104 µM (inactive)

**Q.** For `COc1cc(NS(=O)(=O)c2ccc(C)cc2C)cc(OC)c1OC`, which AC50 [6] is on record?
**A.** Its AC50 is 4.95 µM (active).

**Q.** And the AC50 [7]?
**A.** Its AC50 is 5.37 µM (active).

**Q.** What about the IC50 [8] of the same compound?
**A.** Its IC50 is 1.38 µM (active).

**Q.** What does the source list for `CC1=CC(=O)C=C(C)C1=NOc1ccccc1[N+](=O)[O-]`?
**A.** EC50 [9]: 17.2 µM (inconclusive); EC50 [10]: 11.1 µM (inconclusive); EC50 [11]: > 75 µM (not active); EC50 [12]: > 150 µM (not active); EC50 [13]: > 66.7 µM (inactive)

**Q.** For `CCOc1ccc(/C=C/c2nc(C#N)c(NCCCN(C)C)o2)cc1`, which IC50 [14] is on record?
**A.** The IC50 was 21.1 µM (active).

**Q.** What about the CC50 [15] of the same compound?
**A.** Its CC50 is > 25 µM (active).

**Q.** For `CC1CC(C)CN(S(=O)(=O)c2ccc(C(=O)NCCCn3ccnc3)cc2)C1` (configuration not stated), which EC50 [16] is on record?
**A.** Its EC50 is 0.527 µM (active).

**Q.** And the EC50 [9]?
**A.** Its EC50 is > 150 µM (not active).

**Q.** And the EC50 [17]?
**A.** The EC50 was 0.873 µM (active).

**Q.** And the EC50 [18]?
**A.** The EC50 was 0.163 µM (active).

**Q.** And the EC50 [10]?
**A.** The EC50 was 5.76 µM (inconclusive).

**Q.** What about the EC50 [11] of the same compound?
**A.** Its EC50 is 4.2 µM (inconclusive).

**Q.** What about the EC50 [12] of the same compound?
**A.** Its EC50 is 10 µM (inconclusive).

**Q.** What about the IC50 [19] of the same compound?
**A.** The IC50 was > 80 µM (inactive).

**Q.** And the EC50 [13]?
**A.** The EC50 was 5.61 µM (active).

**Q.** And the AC50 [20]?
**A.** The AC50 was 0.437 µM (active).

**Q.** What does the source list for `CCC(NC(C)c1ccccc1)=C1C(=O)N(C)C(=O)N(C)C1=O` (configuration not stated)?
**A.** IC50 [21]: 2.84 µM (active); IC50 [22]: 2.81 µM (active); EC50 [23]: 47.9 µM (active); EC50 [24]: 50 µM (active); EC50 [25]: > 260 µM (inactive); IC50 [26]: 9.12 µM (active); IC50 [27]: 8.43 µM (active)
